Tests used:
Assay in all cases: PDSP GPCR panel primary binding assays at 10 μM
[1] = target: T1, cloned human or rodent CNS receptors, channels, and transporters (PDSP panel) (Homo sapiens, UniProt P08912); conditions: Receptor M5, primary assay, 10 μM
T1 construct: expressed in transfected cells
T1 sequence (P08912 1-532): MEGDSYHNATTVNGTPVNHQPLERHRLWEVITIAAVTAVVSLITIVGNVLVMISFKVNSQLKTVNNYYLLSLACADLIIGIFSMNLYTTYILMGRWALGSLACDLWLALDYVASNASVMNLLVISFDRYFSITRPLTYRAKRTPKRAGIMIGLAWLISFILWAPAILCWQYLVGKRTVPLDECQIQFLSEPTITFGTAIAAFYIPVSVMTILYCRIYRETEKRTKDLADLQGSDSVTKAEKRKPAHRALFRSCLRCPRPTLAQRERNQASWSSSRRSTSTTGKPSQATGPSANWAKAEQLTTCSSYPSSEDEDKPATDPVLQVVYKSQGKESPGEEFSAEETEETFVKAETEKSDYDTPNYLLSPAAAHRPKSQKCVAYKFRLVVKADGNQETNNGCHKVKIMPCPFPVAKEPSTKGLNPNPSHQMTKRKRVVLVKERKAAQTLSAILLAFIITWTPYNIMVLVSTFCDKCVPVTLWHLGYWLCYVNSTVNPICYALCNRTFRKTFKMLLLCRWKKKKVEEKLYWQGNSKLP
Method in brief: (§1)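 Radioligand displacement at cloned human or rodent CNS targets: 46–47 primary binding assays run in quadruplicate at 10 μM. Targets where the compound displaced an average of >50% of radiolabeled standard ligand went to secondary binding in 11-point dose-response, in triplicate; none run for H3, PBR or GABAA.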

[2] = target: T2, cloned human or rodent CNS receptors, channels, and transporters (PDSP panel) (Homo sapiens, UniProt P14416); conditions: Receptor D2, primary assay, 10 μM
T2 construct: expressed in transfected cells
Method in brief: as §1

[3] = target: T3, cloned human or rodent CNS receptors, channels, and transporters (PDSP panel) (Homo sapiens, UniProt P20309); conditions: Receptor M3, primary assay, 10 μM
T3 construct: expressed in transfected cells
Method in brief: as §1

[4] = target: T4, cloned human or rodent CNS receptors, channels, and transporters (PDSP panel) (Homo sapiens, UniProt P28566); conditions: Receptor 5-HT1E, primary assay, 10 μM
T4 construct: expressed in transfected cells
Method in brief: as §1

[5] = target: T5, cloned human or rodent CNS receptors, channels, and transporters (PDSP panel) (Homo sapiens, UniProt P35372); conditions: Receptor MOR, primary assay, 10 μM
T5 construct: expressed in transfected cells
Method in brief: as §1

[6] = target: T6, cloned human or rodent CNS receptors, channels, and transporters (PDSP panel) (Homo sapiens, UniProt Q01959); conditions: Receptor DAT, primary assay, 10 μM
T6 construct: expressed in transfected cells
Method in brief: as §1

[7] = test system: cloned human or rodent CNS receptors, channels, and transporters (PDSP panel); conditions: primary assay, 10 μM; for Mean %: mean of Inhibition 1-4
Method in brief: as §1

T3 sequence (P20309 whole entry): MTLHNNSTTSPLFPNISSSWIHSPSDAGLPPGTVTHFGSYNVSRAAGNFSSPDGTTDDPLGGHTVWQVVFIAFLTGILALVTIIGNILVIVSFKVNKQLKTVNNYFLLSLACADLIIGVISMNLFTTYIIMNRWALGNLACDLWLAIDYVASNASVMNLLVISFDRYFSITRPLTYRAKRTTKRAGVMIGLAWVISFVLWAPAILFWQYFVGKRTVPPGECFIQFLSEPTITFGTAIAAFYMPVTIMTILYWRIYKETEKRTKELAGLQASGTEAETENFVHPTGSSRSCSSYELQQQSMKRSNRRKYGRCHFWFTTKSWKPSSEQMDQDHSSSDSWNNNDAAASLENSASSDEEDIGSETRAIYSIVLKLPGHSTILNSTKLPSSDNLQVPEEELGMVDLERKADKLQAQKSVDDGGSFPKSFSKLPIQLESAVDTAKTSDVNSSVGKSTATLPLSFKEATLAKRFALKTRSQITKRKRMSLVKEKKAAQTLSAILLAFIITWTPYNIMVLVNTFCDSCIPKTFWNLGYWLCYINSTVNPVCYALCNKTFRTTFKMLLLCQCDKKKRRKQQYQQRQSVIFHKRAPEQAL
T2 sequence (P14416 whole entry): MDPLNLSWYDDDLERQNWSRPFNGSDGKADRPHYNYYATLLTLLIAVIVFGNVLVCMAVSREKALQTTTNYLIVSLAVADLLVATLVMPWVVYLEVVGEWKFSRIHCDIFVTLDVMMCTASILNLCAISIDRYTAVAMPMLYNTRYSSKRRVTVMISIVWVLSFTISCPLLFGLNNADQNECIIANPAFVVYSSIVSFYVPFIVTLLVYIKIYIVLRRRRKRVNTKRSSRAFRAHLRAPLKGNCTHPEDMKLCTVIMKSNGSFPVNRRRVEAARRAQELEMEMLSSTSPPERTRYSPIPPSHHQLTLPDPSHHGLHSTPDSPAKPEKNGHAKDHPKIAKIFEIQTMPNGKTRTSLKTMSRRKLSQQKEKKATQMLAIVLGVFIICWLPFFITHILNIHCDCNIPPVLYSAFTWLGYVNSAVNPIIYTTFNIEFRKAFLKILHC
T6 sequence (Q01959 whole entry): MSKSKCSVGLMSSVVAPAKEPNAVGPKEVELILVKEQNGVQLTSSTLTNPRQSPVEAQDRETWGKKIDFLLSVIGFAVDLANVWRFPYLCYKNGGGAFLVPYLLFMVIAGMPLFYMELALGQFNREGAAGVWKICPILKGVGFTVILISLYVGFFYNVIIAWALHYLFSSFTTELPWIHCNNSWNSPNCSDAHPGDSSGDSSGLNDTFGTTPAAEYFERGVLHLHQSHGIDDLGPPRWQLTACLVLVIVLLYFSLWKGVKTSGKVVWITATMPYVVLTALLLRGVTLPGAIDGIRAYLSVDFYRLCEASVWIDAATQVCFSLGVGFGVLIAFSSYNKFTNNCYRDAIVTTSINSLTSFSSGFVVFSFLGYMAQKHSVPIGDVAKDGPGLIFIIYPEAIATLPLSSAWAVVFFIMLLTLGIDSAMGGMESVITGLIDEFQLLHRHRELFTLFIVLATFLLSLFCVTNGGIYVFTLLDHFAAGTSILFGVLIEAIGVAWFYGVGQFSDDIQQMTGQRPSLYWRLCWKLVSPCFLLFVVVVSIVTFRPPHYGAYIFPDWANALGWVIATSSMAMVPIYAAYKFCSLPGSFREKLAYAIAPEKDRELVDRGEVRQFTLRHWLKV
T5 sequence (P35372 whole entry): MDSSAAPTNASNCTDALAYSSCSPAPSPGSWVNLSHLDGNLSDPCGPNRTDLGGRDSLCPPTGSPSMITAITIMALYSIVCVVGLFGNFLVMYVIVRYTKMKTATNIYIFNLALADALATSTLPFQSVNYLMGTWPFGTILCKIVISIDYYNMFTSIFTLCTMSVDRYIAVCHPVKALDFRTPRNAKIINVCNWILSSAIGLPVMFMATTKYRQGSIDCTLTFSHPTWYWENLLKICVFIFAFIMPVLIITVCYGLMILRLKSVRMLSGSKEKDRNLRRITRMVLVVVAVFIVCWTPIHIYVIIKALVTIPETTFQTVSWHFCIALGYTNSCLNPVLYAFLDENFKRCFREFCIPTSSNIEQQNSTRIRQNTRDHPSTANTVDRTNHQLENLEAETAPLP
T4 sequence (P28566 whole entry): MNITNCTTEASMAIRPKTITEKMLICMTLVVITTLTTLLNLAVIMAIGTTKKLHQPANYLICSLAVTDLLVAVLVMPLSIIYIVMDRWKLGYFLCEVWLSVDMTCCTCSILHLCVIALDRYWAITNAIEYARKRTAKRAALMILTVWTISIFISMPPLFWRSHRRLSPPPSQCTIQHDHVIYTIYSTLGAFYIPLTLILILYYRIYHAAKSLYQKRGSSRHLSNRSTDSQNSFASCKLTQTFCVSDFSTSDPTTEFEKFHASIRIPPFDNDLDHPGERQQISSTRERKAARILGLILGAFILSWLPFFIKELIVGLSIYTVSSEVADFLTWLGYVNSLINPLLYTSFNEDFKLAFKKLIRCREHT

c1cn2cc(-c3ccc4cn[nH]c4c3)nc(Nc3ccc(N4CCOCC4)cc3)c2n1 [UNC10302678A, Entospletinib (GS-9973)]
Inhibition 1 [1]: -6.98%
Inhibition 2 [1]: -7.99%
Inhibition 3 [1]: 1.47%
Inhibition 4 [1]: 5.9%
Mean % ([1]; mean of Inhibition 1-4): -1.9%
Inhibition 1 [2]: 15.89%
Inhibition 2 [2]: 4.51%
Inhibition 3 [2]: -1.13%
Inhibition 4 [2]: -7.35%
Mean % ([2]; mean of Inhibition 1-4): 2.98%
Inhibition 1 [3]: 13.32%
Inhibition 2 [3]: 23.97%
Inhibition 3 [3]: 7.51%
Inhibition 4 [3]: 7.37%
Mean % ([3]; mean of Inhibition 1-4): 13.04%
Inhibition 1 [4]: -2.53%
Inhibition 2 [4]: -10.95%
Inhibition 3 [4]: -16.42%
Inhibition 4 [4]: -0.46%
Mean % ([4]; mean of Inhibition 1-4): -7.59%
Inhibition 1 [5]: -0.9%
Inhibition 2 [5]: 12.23%
Inhibition 3 [5]: 5.91%
Inhibition 4 [5]: -3.58%
Mean % ([5]; mean of Inhibition 1-4): 3.42%
Inhibition 1 [6]: 27.87%
Inhibition 2 [6]: 18.37%
Inhibition 3 [6]: 25.5%
Inhibition 4 [6]: 31.55%
Mean % ([6]; mean of Inhibition 1-4): 25.82%
Inhibition 1 ([7]; Receptor Alpha1A): -6.64%
Inhibition 2 ([7]; Receptor Alpha1A): -39.37%
Inhibition 3 ([7]; Receptor Alpha1A): -29.27%
Inhibition 4 ([7]; Receptor Alpha1A): -15.24%
Mean % ([7]; Receptor Alpha1A): -22.63%
Inhibition 1 ([7]; Receptor Alpha2A): -9.73%
Inhibition 2 ([7]; Receptor Alpha2A): -11.16%
Inhibition 3 ([7]; Receptor Alpha2A): -12.52%
Inhibition 4 ([7]; Receptor Alpha2A): 5.61%
Mean % ([7]; Receptor Alpha2A): -6.95%
Inhibition 1 ([7]; Receptor Alpha2C): 4.82%
Inhibition 2 ([7]; Receptor Alpha2C): 7.15%
Inhibition 3 ([7]; Receptor Alpha2C): 3.37%
Inhibition 4 ([7]; Receptor Alpha2C): 11.76%
Mean % ([7]; Receptor Alpha2C): 6.78%
Inhibition 1 ([7]; Receptor BZP Rat Brain Site): 2.63%
Inhibition 2 ([7]; Receptor BZP Rat Brain Site): -6.94%
Inhibition 3 ([7]; Receptor BZP Rat Brain Site): -0.59%
Inhibition 4 ([7]; Receptor BZP Rat Brain Site): 10.21%
Mean % ([7]; Receptor BZP Rat Brain Site): 1.33%
Inhibition 1 ([7]; Receptor DOR): -7.03%
Inhibition 2 ([7]; Receptor DOR): -15.52%
Inhibition 3 ([7]; Receptor DOR): 1.47%
Inhibition 4 ([7]; Receptor DOR): -11.54%
Mean % ([7]; Receptor DOR): -8.16%
Inhibition 1 ([7]; Receptor H3): 4.01%
Inhibition 2 ([7]; Receptor H3): 32.57%
Inhibition 3 ([7]; Receptor H3): 40.44%
Inhibition 4 ([7]; Receptor H3): 49.18%
Mean % ([7]; Receptor H3): 31.55%
Inhibition 1 ([7]; Receptor H4): 40.38%
Inhibition 2 ([7]; Receptor H4): 31.02%
Inhibition 3 ([7]; Receptor H4): 31.26%
Inhibition 4 ([7]; Receptor H4): 64.39%
Mean % ([7]; Receptor H4): 41.76%
Inhibition 1 ([7]; Receptor Sigma 1): 24.21%
Inhibition 2 ([7]; Receptor Sigma 1): 17.43%
Inhibition 3 ([7]; Receptor Sigma 1): 8.82%
Inhibition 4 ([7]; Receptor Sigma 1): -3.67%
Mean % ([7]; Receptor Sigma 1): 11.7%
Inhibition 1 ([7]; Receptor Sigma 2): 10.94%
Inhibition 2 ([7]; Receptor Sigma 2): -1.79%
Inhibition 3 ([7]; Receptor Sigma 2): -3.28%
Inhibition 4 ([7]; Receptor Sigma 2): -0.08%
Mean % ([7]; Receptor Sigma 2): 1.45%
